Tests used:
[1] = Human microsome stability assay; assay type: in vitro ADME; conditions: 1 μM test compound, 0.5 mg/mL protein
Method: The human microsomal stability assay is used for early assessment of metabolic stability of a test compound in human liver microsomes.
Human liver microsomes (Cat. NO.: 452117, Corning, USA; Cat. NO.: H2610, Xenotech, USA) were preincubated with test compound for 10 minutes at 37° C. in 100 mM potassium phosphate buffer, pH 7.4. The reactions were initiated by adding NADPH regenerating system. The final incubation mixtures contained 1 μM test compound, 0.5 mg/mL liver microsomal protein, 1 mM MgCl2, 1 mM NADP, 1 unit/mL isocitric dehydrogenase and 6 mM isocitric acid in 100 mM potassium phosphate buffer, pH 7.4. After incubation times of 0, 3, 6, 9, 15 and 30 minutes at 37° C., 300 μL of cold ACN (including internal standard) was added to 100 μL incubation mixture to terminate the reaction. Following precipitation and centrifugation, the amount of compound remaining in the samples were determined by LC-MS/MS. Controls of no NADPH regenerating system at zero and 30 minutes were also prepared and analyzed. The results were categorized as: low (<7.0 mL/min/kg), medium (7.0˜16.2 mL/min/kg) and high (16.2-23.2 mL/min/kg).

[2] = molecular target: T1, human TLR7 (Homo sapiens, UniProt Q9NYK1); test: HEK293-Blue-hTLR-7 cells assay (SEAP reporter, R848 stimulation); assay type: cell-based; conditions: HEK293-Blue-hTLR7 cells, R848, 20 hrs
T1 construct: host or cells: HEK293 (HEK-Blue hTLR7)
T1 sequence (Q9NYK1 27-1049): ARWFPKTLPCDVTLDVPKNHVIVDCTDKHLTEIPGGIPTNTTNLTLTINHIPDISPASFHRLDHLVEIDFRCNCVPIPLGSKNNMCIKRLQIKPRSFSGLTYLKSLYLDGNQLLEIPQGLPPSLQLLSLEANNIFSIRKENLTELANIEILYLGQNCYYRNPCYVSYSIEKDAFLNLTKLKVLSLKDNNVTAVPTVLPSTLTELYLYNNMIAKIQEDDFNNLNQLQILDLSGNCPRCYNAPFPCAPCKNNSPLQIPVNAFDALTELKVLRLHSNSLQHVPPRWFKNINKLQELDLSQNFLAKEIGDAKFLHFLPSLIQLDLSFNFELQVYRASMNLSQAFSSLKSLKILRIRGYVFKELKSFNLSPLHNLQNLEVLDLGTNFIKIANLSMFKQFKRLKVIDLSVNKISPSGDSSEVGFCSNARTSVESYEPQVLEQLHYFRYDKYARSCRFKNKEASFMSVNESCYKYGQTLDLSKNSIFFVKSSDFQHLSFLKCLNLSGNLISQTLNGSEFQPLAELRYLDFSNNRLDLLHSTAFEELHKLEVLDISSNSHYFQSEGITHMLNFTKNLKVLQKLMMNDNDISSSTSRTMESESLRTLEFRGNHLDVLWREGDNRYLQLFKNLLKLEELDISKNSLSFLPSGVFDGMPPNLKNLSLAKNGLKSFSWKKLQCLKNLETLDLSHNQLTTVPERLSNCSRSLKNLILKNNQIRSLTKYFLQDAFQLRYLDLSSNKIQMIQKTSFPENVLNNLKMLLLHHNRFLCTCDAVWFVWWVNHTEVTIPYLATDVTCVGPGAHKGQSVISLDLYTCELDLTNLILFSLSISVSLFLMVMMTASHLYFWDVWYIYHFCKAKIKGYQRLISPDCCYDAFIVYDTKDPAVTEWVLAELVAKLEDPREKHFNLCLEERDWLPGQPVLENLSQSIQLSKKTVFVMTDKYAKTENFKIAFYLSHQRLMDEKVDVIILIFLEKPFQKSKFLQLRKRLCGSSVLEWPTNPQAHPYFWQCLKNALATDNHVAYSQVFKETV
Method: The following tests were carried out in order to determine the activity of the compounds of formula (I) in HEK293-Blue-hTLR-7/8/9 cells assay.
HEK293-Blue-hTLR-7 Cells Assay:
A stable HEK293-Blue-hTLR-7 cell line was purchased from InvivoGen (Cat. #: hkb-htlr7, San Diego, Calif. USA). These cells were originally designed for studying the stimulation of human TLR7 by monitoring the activation of NF-κB. A SEAP (secreted embryonic alkaline phosphatase) reporter gene was placed under the control of the IFN-β minimal promoter fused to five NF-κB and AP-1-binding sites. The SEAP was induced by activating NF-κB and AP-1 via stimulating HEK-Blue hTLR7 cells with TLR7 ligands. Therefore the reporter expression was declined by TLR7 antagonist under the stimulation of a ligand, such as R848 (Resiquimod), for incubation of 20 hrs. The cell culture supernatant SEAP reporter activity was determined using QUANTI-Blue™ kit (Cat. #: rep-qbl, Invivogen, San Diego, Calif., USA) at a wavelength of 640 nm, a detection medium that turns purple or blue in the presence of alkaline phosphatase.
HEK293-Blue-hTLR7 cells were incubated at a density of 250,000˜450,000 cells/mL in a volume of 170 μL in a 96-well plate in Dulbecco's Modified Eagle's medium (DMEM) containing 4.5 g/L glucose, 50 U/mL penicillin, […], […], 2 mM L-glutamine, 10% (v/v) heat-inactivated fetal bovine serum with addition of 20 μL A test compound in a serial dilution in the presence of final DMSO at 1% and 10 μL of 20 uM R848 in above DMEM, perform incubation under 37° C. in a CO2 incubator for 20 hrs. Then 20 μL of the supernatant from each well was incubated with 180 μQuanti-blue substrate solution at 37° C. for 2 hrs and the absorbance was read at 620˜655 nm using a spectrophotometer. The signalling pathway that TLR7 activation leads to downstream NF-κB activation has been widely accepted, and therefore similar reporter assay was modified for evaluating TLR7 antagonist.

| Structure (SMILES) | clearance in human liver microsomes [1] [mL/min/kg] | IC50 [2] [nM] |
| --- | --- | --- |
| C[C@@H]1CN(c2ccc(C(F)(F)F)c3ncccc23)C[C@H](C(=O)N2CC(N)C2)O1 [Example 7, (3-aminoazetidin-1-yl)-[(2R,6R)-6-methyl-4-[8-(trifluoromethyl)-5-quinolyl]morpholin-2-yl]methanone] | 6.15 | 63 |
| C[C@@H]1CN(c2ccc(C(F)(F)F)c3ncccc23)C[C@H](C(=O)NC2CCCNCC2)O1 (stereo partly drawn) [Example 8, (2R,6R)-N-(azepan-4-yl)-6-methyl-4-[8-(trifluoromethyl)-5-quinolyl]morpholine-2-carboxamide] | 6.15 | 4 |
| C[C@@H]1CN(c2ccc(C(F)(F)F)c3ncccc23)C[C@H](C(=O)N2CCC(N)C2)O1 (stereo partly drawn) [Example 10, (3-aminopyrrolidin-1-yl)-[(2R,6R)-6-methyl-4-[8-(trifluoromethyl)-5-quinolyl]morpholin-2-yl]methanone] | 6.15 | 360 |
| C[C@@H]1CN(c2ccc(C(F)(F)F)c3ncccc23)C[C@H](C(=O)N2CCC(N)CC2)O1 [Example 12, (4-amino-1-piperidyl)-[(2R,6R)-6-methyl-4-[8-(trifluoromethyl)-5-quinolyl]morpholin-2-yl]methanone] | 6.15 | 150 |
| C[C@@H]1CN(c2ccc(Cl)c3ncccc23)C[C@H](C(=O)NC2CCCNCC2)O1 (stereo partly drawn) [Example 25, (2R,6R)-N-(azepan-4-yl)-4-(8-chloro-5-quinolyl)-6-methyl-morpholine-2-carboxamide] | 7.16 | 12 |
| C[C@@H]1CN(c2ccc(Cl)c3ncccc23)C[C@H](C(=O)NCC2CN(C)CCO2)O1 (stereo partly drawn) [Example 26, (2R,6R)-4-(8-chloro-5-quinolyl)-6-methyl-N-[(4-methylmorpholin-2-yl)methyl]morpholine-2-carboxamide] | 6.15 | 23 |
| C[C@@H]1CN(c2ccc(C(F)(F)F)c3ncccc23)C[C@H](C(=O)NC[C@@H]2C[C@@H](F)CN2)O1 [Example 27, (2R,6R)-N-[[(2S,4R)-4-fluoropyrrolidin-2-yl]methyl]-6-methyl-4-[8-(trifluoromethyl)-5-quinolyl]morpholine-2-carboxamide] | 6.15 | 60 |
| C[C@@H]1CN(c2ccc(I)c3ncccc23)C[C@H](C(=O)NC2CCN(C)CC2)O1 [Example 38, (2R,6R)-4-(8-iodo-5-quinolyl)-6-methyl-N-(1-methyl-4-piperidyl)morpholine-2-carboxamide] | 7.04 | 3 |

More lines, in order of falling IC50 [2], values ahead:

| clearance in human liver microsomes [1] [mL/min/kg] | IC50 [2] [nM] | Structure (SMILES) |
| --- | --- | --- |
| 6.15 | 140 | Cc1ccc(N2C[C@@H](C)O[C@@H](C(=O)NCC3CN(C)CCO3)C2)c2cccnc12 (stereo partly drawn) [Example 17, (2R,6R)-6-methyl-N-[(4-methylmorpholin-2-yl)methyl]-4-(8-methyl-5-quinolyl)morpholine-2-carboxamide] |
| 6.15 | 74 | Cc1ccc(N2C[C@@H](C)O[C@@H](C(=O)NC3CCN(C)CC3)C2)c2cccnc12 [Example 16, (2R,6R)-6-methyl-N-(1-methyl-4-piperidyl)-4-(8-methyl-5-quinolyl)morpholine-2-carboxamide] |
| 6.15 | 39 | C[C@@H]1CN(c2ccc(Cl)c3ncccc23)C[C@H](C(=O)N[C@H]2CNC[C@H]2F)O1 [Example 22, (2R,6R)-4-(8-chloro-5-quinolyl)-N-[(3S,4R)-4-fluoropyrrolidin-3-yl]-6-methyl-morpholine-2-carboxamide] |
| 6.15 | 15 | C[C@@H]1CN(c2ccc(Cl)c3ncccc23)C[C@H](C(=O)NC2CCN(C)CC2)O1 [Example 24, (2R,6R)-4-(8-chloro-5-quinolyI)-6-methyl-N-(1-methyl-4-piperidyl)morpholine-2-carboxamide] |
| 6.15 | 7 | C[C@H]1C[C@@H](N)CN(c2ccc(Cl)c3ncccc23)C1 [Example 23, (3R,5S)-1-(8-chloro-5-quinolyl)-5-methyl-piperidin-3-amine] |
| 6.15 | 5 | C[C@@H]1CN(c2ccc(C(F)(F)F)c3ncccc23)C[C@H](C(=O)NC2C3CCC2CNC3)O1 (stereo partly drawn) [Example 31, (2R,6R)-N-(3-azabicyclo[3.2.1]octan-8-yl)-6-methyl-4-[8-(trifluoromethyl)-5-quinolyl]morpholine-2-carboxamide] |

Source: patent publication US20220363665A1, “QUINOLINE COMPOUNDS FOR THE TREATMENT OF AUTOIMMUNE DISEASE” (Hoffmann-La Roche Inc., priority 2019, published 2022)
